Results: patent US20200377568A1, “Novel IL-4-/IL-13-derived peptide compounds for the treatment or prevention of neurodegenerative or neuroinflammatory diseases” (Universitätsmedizin der Johannes Gutenberg-Universität Mainz, priority 2018, published 2020)

Experiments:
[1] = system: CD11b+ bone marrow-derived macrophages (BMDMs); assay: Differentiation of bone marrow-derived macrophages; type: cell-based, mouse; conditions: different concentrations, FIG. 4A
Protocol: (§1) A-B: Effects of incubation with IL-4 and different concentrations of Link4 and Link13 on the differentiation of A: CD11b^+ bone marrow-derived macrophages (BMDMs) into F80^+CD206^+ cells, and B: CD4^+ T cells into Gata3^+ cells. C-D: FACS results for different populations of T cells and CD11b^+MHCII^+ monocytes/macrophages/microglia of immune cells isolated from C: spleen and D: central nervous system (CNS) of EAE mice treated with PBS, IL-4 or Link4.
In order to investigate whether Link4 and Link13 are able to modulate immune cells, in vitro assays were performed on bone marrow-derived macrophages (BDMBs) and on naïve T cells.
Murine BMDMs were isolated from adult C57BL/6 mice. The tibia and femur bones were flushed with sterile PBS and the bone marrow was collected in washing medium. After filtering the cell suspension trough a 100 μm nylon mesh, the cells were centrifuged (5 min, 550 g, 4° C.) and resuspended in mouse medium (10% FCS, 1% P/S, 1% L-glutamine, 0.1% β-mercaptoethanol, 1% HEPES in RPMI buffer). For the in vitro generation of BMDMs cells were plated in 6 well-plates and exposed to 20 ng/ml Macrophage […] (M-CSF) for 4 days. For the activation of the cells, Dexametason (5×10^−7M), LPS (10 μg/ml) and IL-4 (10 ng/ml) were added to the culture for the following 3 days.

[2] = system: immune cells isolated from central nervous system (CNS); assay: FACS of immune cells from CNS of EAE mice after nasal treatment; type: in vivo, mouse; conditions: CNS (brain and spinal cord), intranasal treatment of EAE mice
Protocol: as §1
(§2) Subsequently, the effects of IL-4 and Link4 on immune cells were analysed when applied intranasally, similarly as in FIG. 3B. Since nasally applied treatments can enter the periphery (lungs, blood stream) it was of utmost importance to check whether the substances affected the lymphocyte populations in the spleen. A reduction was found of CD8^+ cytotoxic T-cells for Link4, whereas all CD4^+ T helper cell types were unchanged. The CD11 b+MHCII+ population of monocytes/macrophages was also not changed.
CNS and spleens were removed from EAE mice treated with nasal IL-4, Link4 or PBS at d35 and immune cells were isolated as previously described (M. Paterka, J. O. Voss, J. Werr, E. Reuter, S. Franck, T. Leuenberger, J. Herz, H. Radbruch, T. Bopp, V. Siffrin, and F. Zipp, Dendritic cells tip the balance towards induction of regulatory T cells upon priming in experimental autoimmune encephalomyelitis. J Autoimmun 67, 108-114 (2017)). […]

[3] = system: mouse embryonic fibroblasts (Mef); assay: CellTiter-blue cell viability assay (ctb), fibroblasts; type: cell-based; conditions: Mef cells, increasing concentrations, FIG. 2A
Protocol: (§3) Toxicity was checked by subjecting mouse embryonic fibroblasts (Mef) and the hippocampal cell line HT22 to a CellTiter-blue cell viability assay (ctb).
(§4) Mouse embryonic fibroblasts (Mef) (Sigma-Aldrich) and hippocampal HT22 (ThermoScientific) cells were cultured according to the manufacturer's protocols. Ctb assays were performed according to the manufacturer's protocols (Promega).

[4] = system: hippocampal cell line HT22; assay: CellTiter-blue cell viability assay (ctb), hippocampal cell line; type: cell-based; conditions: HT22 cells, increasing concentrations, FIG. 2B
Protocol: as §3, §4

[5] = system: immune cells isolated from spleen; assay: FACS of immune cells from spleen of EAE mice after nasal treatment; type: in vivo, mouse; conditions: intranasal treatment of EAE mice
Protocol: as §1, §2
CNS and spleens were removed from EAE mice treated with nasal IL-4, Link4 or PBS at d35 and immune cells were isolated as previously described (M. Paterka, J. O. Voss, J. Werr, E. Reuter, S. Franck, T. Leuenberger, J. Herz, H. Radbruch, T. Bopp, V. Siffrin, and F. Zipp, Dendritic cells tip the balance towards induction of regulatory T cells upon priming in experimental autoimmune encephalomyelitis. J Autoimmun 67, 108-114 (2017)). For in vitro stimulation of T cells, anti-CD3 (145-2C11) and anti-CD28 (37.51) were used. The following antibodies were used for flow cytometry with the BD FACSCanto II (BD Bioscience): anti-CD4 PEcγ7 (RM4-5), anti-CD8 FITC (53-6.7), anti-CD3APC (145-2c11), anti-CD11 b bio (M1/70), anti-MHCII PE (AF6-120.1), anti-CD11 b V450 (HL311B), anti-CD45 AF605 (30-F11), anti-GM-CSF PE (MP1-22E9), anti-IL17 APC (eBio17B7), anti-TNFα AF700 (MP6-XT22), anti-IFN-γV450 (XMG1.2), anti-GATA-3 PE (TWAZ), anti-FOXP3 PEcy7(FZK-16s), anti-IL-10 APC (JESS-16E3), anti-CD4 V450 (RM4-5). All antibodies were purchased from eBioscience or Biolegend.

[6] = system: corticospinal tract axons; assay: Analysis of axon swellings in spinal cords of EAE mice; type: in vivo, mouse; conditions: EAE mice treated during the chronic phase, FIG. 7A
Protocol: A: Histological analysis of corticospinal tract axons in spinal cords of EAE mice treated during the chronic phase of the disease.
EAE experiments were performed by immunizing YFP-H mice, that express yellow fluorescent protein in corticospinal neurons, with MOG35-55. Mice were treated with IL-4 or PBS as described above. At the last treatment day, the mice were sacrificed with an overdose of anaesthesia and transcardially perfused with 4% paraformaldehyde. Spinal cords were dissected and further processed for cryosectioning. YFP-labelled corticospinal tract axons were photographed using the Keyence BZ-9000 microscope. For quantification of axon swellings, thresholds were set in ImageJ so that stained pixels were highlighted. Thresholded swellings were counted using the ImageJ plug-in “particle analysis”.

RARSEIIGIGSKSIMQMDY (listed as Mus musculus) [Link4]
differentiation of CD11b+ BMDMs into F80+CD206+ cells [1]: did not occur | IL-10+ cells [2]: significant rise | toxic effects on fibroblasts (cell viability) [3]: no toxic effects | toxic effects on hippocampal neurons (cell viability) [4]: no toxic effects | CD4+ T helper cell types [5]: unchanged | CD8+ cytotoxic T-cells [5]: reduction | CD11b+MHCII+ population of monocytes/macrophages [5]: not changed | number of axon swellings [6]: significantly reduced
